Where “and” joins values, the source holds several entries; their conditions need not be identical. Identical values can stand only once.
Columns and labels:
[1] = biological target: T1, Zea mays bx9 glucosyl transferase (C-terminally his tagged SEQ ID NO: 1) (Zea mays, UniProt B4G072); test: UDP-Glo glucosyl transferase assay, purified enzyme; type: biochemical
T1 construct: His tag (C); made in house; host or cells: E. coli BL21 (DE3), pET24a
T1 sequence (B4G072 1-462): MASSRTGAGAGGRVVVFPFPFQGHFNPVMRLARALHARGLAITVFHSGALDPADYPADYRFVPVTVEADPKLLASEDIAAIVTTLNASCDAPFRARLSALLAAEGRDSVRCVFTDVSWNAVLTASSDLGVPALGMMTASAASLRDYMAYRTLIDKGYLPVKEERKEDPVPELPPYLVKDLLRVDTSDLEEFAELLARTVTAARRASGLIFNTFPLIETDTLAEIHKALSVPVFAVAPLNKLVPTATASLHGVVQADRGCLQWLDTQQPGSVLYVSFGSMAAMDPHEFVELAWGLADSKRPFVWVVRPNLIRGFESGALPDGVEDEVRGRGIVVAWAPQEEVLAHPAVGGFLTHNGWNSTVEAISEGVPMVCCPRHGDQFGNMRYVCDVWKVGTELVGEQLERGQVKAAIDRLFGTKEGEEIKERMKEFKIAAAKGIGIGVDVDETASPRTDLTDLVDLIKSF

[2] = biological target: T2, SEQ ID NO 20, mutant of Zea mays bx9 glucosyl transferase (Zea mays, UniProt B4G072, A281K/A334K/F21Y/L194V/M279F/S117V); type: biochemical; settings: lower block, concentration printed only in upper block: V 0.300, VII 0.210; IV, VIII, XI, XXI, XX, XVIII, XVI, XV, XIV 0.200; others 1.000 mM
T2 construct: His tag (C); made in house
Procedure: Glucosyl transferase activity is assayed via measurement of acceptor substrate-dependent production of UDP from ultrapure UDP-glucose using the Promega UDP-Glo™ method and according to the manufacturer's instructions. Assays are run in 96 well microtiter plates.
Enzyme, typically at a stock concentration of ˜2 mg/ml is diluted to an appropriate concentration in 50 mM K^+ Hepes buffer at pH7.5 containing 0.5 mg/mL bovine serum albumin (BSA) and 5 ul aliquots of this diluted enzyme added to each well of a Perkin Elmer white ½ area 96 well plate. […] Assays are run for an appropriate time (usually 10 to 60 min) so that the amount of UDP formed lies within the most nearly linear part of the UDP standard curve and are stopped with the addition and mixing of 25 ul UDP-Glo™ detection reagent (prepared as described below). Plates are then incubated at room temperature for 60 minutes and then read in a luminescence plate reader (Perkin Elmer Envision 2130 Multilabel Reader). A UDP standard curve is run alongside each set of assays and reagent blank control assays run with DMSO in place of test herbicide.
The UDP-Glo™ reagents are made up and used according to the manufacturer's instructions. Thus, Nucleotide Detection Buffer and ATP are combined to make nucleotide detection reagent (NDR) dispensed into aliquots and frozen to be freshly thawed before use.
Km and kcat values in respect of UDP-glucose are derived by carrying out experiments to measure initial rates over a suitable range of concentrations of UDP glucose out at a fixed near saturating concentration of acceptor substrate. Best fit values of kcat, Km and kcat/Km are obtained by direct fitting of the data to the Michaelis-Menten equation using Graphpad Prism™ software.
All of these proteins were C-terminally his-tagged, expressed and purified as described in Example 1. Assays were run and analyzed as described in example 1.

[3] = system: transgenic tobacco plants expressing SEQ ID NO: 16; test: Glass house spray test on tobacco, percent damage; type: in vivo; settings: for tolerance compared with w/t and SEQ ID NO: 1 plants: 200 and 500 g/ha, 14 DAT, several events
From the text: Three transgenic populations of about forty tobacco plants and comprising, a glucosyl transferase gene encoding either zmBX8 (SEQ ID NO 2) or zmBX9 (SEQ ID NO 1) were thus produced. A sub-set of about 30 plants were selected on the basis of similar size from each population for spray testing. The plants were then sprayed with 30 g/ha of Compound VI. VI was mixed in water with 0.2-0.25% X-77 surfactant and sprayed from a boom on a suitable track sprayer moving at 2 mph with the nozzle about 2 inches from the plant tops. Spray volume was 200 l/ha. Plants were assessed for damage and scored at 7 and 14 days after treatment (DAT).
In a further example, Zea mays BX8 or BX9 or orthologues of BX8/9, are altered to carry amino acid variants at various positions which increase tolerance to the alcohol and aminal PSII herbicides as described in the example above. DNA sequences that encode these polypeptides (optimized for tobacco or, optionally, codon optimized according to a target crop such as soybean) were prepared for tobacco transformation as described in example 10. […] Transgenic tobacco populations expressing SEQ ID NOs 16 and 17 were generated alongside a population expressing the parental zmBX9 sequence (SEQ ID 1). […] Plants were assessed for damage and scored at 14 days after treatment (DAT). The results are depicted in Table 19 and also in FIG. 6.

[4] = 0.5 mM UDP-glucose, 25 C, pH 7.5, DMSO reagent blank as control
[5] = control = inactive H24A mutant of bx9 (asterisk)
[6] = herbicide 0.500 mM, limit of detection about 0.001
[7] = herbicide mM: V 0.300, VI 0.250, VII 0.210, IV, VIII, XI, XXI, XX, XVIII, XVI, XV, XIV 0.200, others 1.000

With `CN1CC(O)N(c2cc(C(F)(F)F)ccn2)C1=O` (stereo not shown) [Compound V] the kcat [1, 4] was 0.012 s⁻¹ and 0.021 s⁻¹, the kcat [1, 5] was 0.0181 s⁻¹ and the Activity [1, 6] was 0.005 pmol/sec/pmol enzyme. For the same molecule, the Activity [1, 7] was 0.005 pmol/sec/pmol enzyme, the Activity [2] was 1.889 pmol/sec/pmol enzyme and the “tolerance compared with w/t and SEQ ID NO: 1 plants” value [3] was “much superior tolerance”.

With `Cc1cnc(N2C(=O)N(C)CC2O)cc1C(F)(F)F` (stereo not shown) [XVIII] the kcat [1, 4] was 0.0040 s⁻¹, the Activity [1, 6] was 0.002 pmol/sec/pmol enzyme and the Activity [1, 7] was 0.001 pmol/sec/pmol enzyme. It also gave an Activity [2] of 1.141 pmol/sec/pmol enzyme.

For `CN1CC(O)N(c2cc(C(F)(F)F)c(Cl)cn2)C1=O` (stereo not shown) [XI], the Activity [1, 6] was 0.000 pmol/sec/pmol enzyme, the Activity [1, 7] was 0.000 pmol/sec/pmol enzyme and the Activity [2] was 1.046 pmol/sec/pmol enzyme.

For `CON1C(=O)N(c2cc(C(F)(F)F)ccn2)C(O)[C@@H]1C` (stereo partly shown) [Compound VI], the kcat [1, 4] was 0.037 s⁻¹ and 0.044 s⁻¹, the kcat [1, 5] was 0.0430 s⁻¹ and the Activity [1, 6] was 0.013 pmol/sec/pmol enzyme. The Activity [1, 7] was 0.012 pmol/sec/pmol enzyme, the “tolerance” value ([3]; 1 kg/ha, events 7937, 7940, 7952, 8039, 8071, 8106 expressing SEQ ID NOs 16 and 17, data not shown) was “substantially fully tolerant” and the “tolerance compared with w/t and SEQ ID NO: 1 plants” value [3] was “much superior tolerance”.

Reference: US20200270588A1, “GLUCOSYL TRANSFERASE POLYPEPTIDES AND METHODS OF USE” (Syngenta Participations AG, priority 2017, published 2020)
